Measurements reported in ChEMBL document CHEMBL6109124, “Identification of effective anti-osteosarcoma agents via screening of an in-house NQO1-targeted compound library” (Bioorg Med Chem, 2025).

Key:
[1] = test system: HOS-TE85; assay: Cytotoxicity against human MNNG cells assessed as cell growth inhibition measured after 72 hrs by MTT assay; format: functional, cell-based; settings: HOS-TE85, 72 h
[2] = Toxicity in human MNNG cell xenografted Balb/c mouse assessed as reduction in AST level at 30 mg/kg, iv administered every 2 days for 3 weeks and measured post last dose; format: organism-based; settings: in vivo, 504 h, time 21 day
[3] = Toxicity in human MNNG cell xenografted Balb/c mouse assessed as reduction in Cr level at 30 mg/kg, iv administered every 2 days for 3 weeks and measured post last dose; format: organism-based; settings: in vivo, 504 h, time 21 day
[4] = test system: HOS-TE85; assay: Antitumor activity against human MNNG cells xenografted in Balb/c mouse assessed as tumor growth inhibition at 30 mg/kg, iv administered every 2 days for 3 weeks and measured daily during compound dosing relative to control; format: functional; settings: HOS-TE85, 504 h, time 21 day, read-out: TGI
[5] = Cytotoxicity against HUVEC assessed as cell growth inhibition measured after 72 hrs by MTT assay; format: toxicity, cell-based; settings: human, HUVEC cells
[6] = Toxicity in human MNNG cell xenografted Balb/c mouse assessed as body weight loss at 30 mg/kg, iv administered every 2 days for 3 weeks and measured every other day during compound dosing; format: organism-based; settings: in vivo, 504 h, time 21 day
[7] = Selectivity index, ratio of IC50 for cytotoxicity against HUVEC to IC50 for cytotoxicity against human MNNG cells; format: toxicity, cell-based; settings: HUVEC and human MNNG cells, read-out: Ratio IC50

CC1(C)CCC2=C(O1)c1ccccc1C(=O)C2=O [LAPACHONE]
IC50 [1]: 2.42 µM | Activity [2]: Toxic | Activity [3]: Toxic | inhibition in vivo at 30 mg/kg [4]: 58.9% | IC50 at 72 h [5]: 12.5 µM | Activity [6]: Non-toxic | selectivity ratio [7]: 5.16
